These are literature values, as cited in paper PMC11258229 (Scientific Reports, 2024).

For data set [1] the following is noted: high permeability and low solubility.

For the compound `CC[C@@H]([C@H](C)O)n1ncn(-c2ccc(N3CCN(c4ccc(OC[C@@H]5CO[C@@](Cn6cncn6)(c6ccc(F)cc6F)C5)cc4)CC3)cc2)c1=O` [Posaconazole], the “half-life (T1/2)” value is “twenty to sixty six”; the “mean T1/2” value is “thirty five”; the “renal clearance, share of the total conjugate oral dosage” value is “around 13%”. In data set [1], the “biopharmaceutical classification system category” value is “class II”.
